Assay results taken from patent publication US11576875B2 (priority 2017, dated 2023).
Entries after “also recorded” stand apart in the source; their conditions may differ.

How the values were obtained:
MuRF1 = test: mRNA expression level by RT-PCR in myotubes; format: cell-based, mouse; conditions: ethyl vanillin with dexamethasone vs dexamethasone control
Description: (§1) After completing the incubation of all experimental groups and the control, cells of each group were obtained, 334 μl of a TRIzol solution per 1×10^7 myotubes was added and replaced, followed by centrifugation at 12,000×g and 4° C. for 10 minutes. Thereafter, the supernatant was transferred to a new tube and 67 μl of chloroform was added thereto, followed by mixing by vortexing. The supernatant in the mixed solution was transferred again to a new tube, and isopropanol was added thereto in a ratio of 1:1 (v:v) of isopropanol to supernatant, followed by vigorous shaking about 10 times and being left at room temperature for 15 minutes. Once again, centrifugation was carried out at 12,000×g and 4° C. for 10 minutes to remove a supernatant, and 1 ml of 70% ethanol was added to the precipitate, followed by centrifugation at 7,500×g and 4° C. for 5 minutes to remove the ethanol, and the tubes were dried at room temperature for 15 minutes. Finally, precipitated RNA was dissolved in nuclease free water to obtain RNA extracted from the cells. The concentration of RNA was identified by measuring absorbance at wavelengths of 260 nm and 280 nm using a UV/VIS spectrometer, and was subjected to electrophoresis to confirm the integrity of RNA samples.
(§2) Reverse transcription-polymerase chain reaction (RT-PCR) was performed using the prepared RNA samples. The obtained RNA samples were used as templates and reverse transcription was performed using oligo dT primers and SuperScript Reverse Transcriptase (GIBCO BRL, Gaithersburg, Md., USA) to synthesize cDNA. The synthesized cDNA was used as a template and PCR was performed using primer pairs (forward primers and reverse primers) shown in Table 1 below. Each primer was constructed based on the 5′ and 3′ flanking sequence of cDNA of the template gene to be amplified. After PCR was completed, 1 μl of each amplified PCR product was subjected to electrophoresis on agarose gel to confirm generated DNA bands.

Myostatin = test: mRNA expression level by RT-PCR in myotubes; format: cell-based, mouse; conditions: ethyl vanillin with dexamethasone vs dexamethasone control
Description: as §1, §2

MaFbx/atrogin 1 = test: mRNA expression level by RT-PCR in myotubes; format: cell-based, mouse; conditions: ethyl vanillin with dexamethasone vs dexamethasone control
Description: as §1, §2

[1] = test system: animal model with high-fat-diet-induced muscle loss; test: Fiber diameter of tibialis anterior muscle tissue (H&E staining); format: in vivo, C57BL/6N mice; conditions: 0.2% ethyl vanillin in high-fat diet, 10 weeks
Description: A normal diet group (Chow) was fed commercial rodent chow. Ethyl vanillin was purchased from Sigma-Aldrich. [table] Muscle tissues of mice were extracted, fixed in 10% formalin, and then stained with hematoxylin and eosin (H&E) after requesting Korea CFC (Gyeonggi-do, Korea) to do so, and observed using an optical microscope (IX71, Olympus, JPN) and photographed using a digital camera (DP71, Olympus, JPN). The statistical analysis of all data was performed using the Statistical Package for the Social Sciences (SPSS version 21.0, IBM, Armonk, N.Y., USA), and analysis values were expressed as mean±SEM, and a significant difference between groups was verified by ANOVA.

[2] = test system: mouse myoblast cell line (C2C12 cells); test: Thickness of myotubes differentiated from mouse myoblasts, muscle reduction induced by dexamethasone; format: cell-based
Description: First, differentiation of myotubes from mouse myoblasts was induced. A mouse myoblast cell line (C2C12 cells) was purchased from ATCC (Manassas, Va., USA) and used. The purchased cells were inoculated in 10% fetal bovine serum media (Gibco-BRL) and incubated in a 5% CO2 incubator at 37° C. When the confluency of the cells attached to the media became 80% or higher, the cells were transferred to 2% horse serum media (Gibco-BRL) to differentiate myoblasts into myotubes.
For two days (48 hours) from day 4 after differentiation into myotubes started to be induced, the media were treated with 50 μM dexamethasone (dexa; Sigma Aldrich, USA) to induce muscle reduction. […] As a non-treated control, cells treated with only dexamethasone and not treated with ethyl vanillin were used.
After completion of the incubation, the cells were washed twice with phosphate buffered saline (PBS), and then fixed by treatment with 100% methanol for 10 minutes. […]
The stained myotubes were photographed using a fluorescence microscope (IX 71, Olympus) at a magnification of 10×, and then analyzed using image J software (USA). Six sections were randomly selected from each well and micrographed, and the thickness of at least 100 myotubes from each well was analyzed (three repetitions/group).

[3] = cited from earlier work
[4] = test system: animal model with high-fat-diet-induced muscle loss; test: Grip test in mice fed a high-fat diet; format: in vivo, C57BL/6N mice; conditions: 0.2% ethyl vanillin in high-fat diet, week 10
Description: A normal diet group (Chow) was fed commercial rodent chow. Ethyl vanillin was purchased from Sigma-Aldrich. [table] To measure the grip strength of mice, grip strength was measured using four feet of the mice at week 10 of breeding. A force (N) for mice to hold a wire mesh was measured a total of five times using a grip strength measurer equipped with a wire mesh (20×10 cm) (Daejong Instrument Industry Co., Ltd., Korea), and a rest period of 1 minute or longer was given between measurements. Experimental results were obtained by dividing the measured force (N) by body weight (kg). The statistical analysis of all data was performed using the Statistical Package for the Social Sciences (SPSS version 21.0, IBM, Armonk, N.Y., USA), and analysis values were expressed as mean±SEM, and a significant difference between groups was verified by ANOVA.

[5] = test system: animal model with high-fat-diet-induced muscle loss; test: Four limb hanging test in mice fed a high-fat diet; format: in vivo, C57BL/6N mice; conditions: 0.2% ethyl vanillin in high-fat diet, week 10
Description: A normal diet group (Chow) was fed commercial rodent chow. Ethyl vanillin was purchased from Sigma-Aldrich. [table] To measure the limb muscle strength of mice, the time that the mice hung upside down using their four feet was measured at week 10 of breeding. The time (seconds) that the mice hung upside down in a cage equipped with a wire mesh cover (diameter<0.5 cm) (20×30×50 cm, Jeung-Do Bio & Plant Co., Ltd, Korea) was measured a total of three times, and a rest period of 30 minutes or longer was given between measurements. Experimental results were obtained by multiplying hanging time (sec) by body weight (kg). The statistical analysis of all data was performed using the Statistical Package for the Social Sciences (SPSS version 21.0, IBM, Armonk, N.Y., USA), and analysis values were expressed as mean±SEM, and a significant difference between groups was verified by ANOVA.

p-p70S6K1 protein = test: Protein expression level by Western blotting in myotubes; format: cell-based, mouse; conditions: ethyl vanillin with dexamethasone vs dexamethasone control
Description: (§3) After completing the incubation of all experimental groups and the control, the media were removed and a lysis buffer was added to each well to lyse the cells. As the lysis buffer, a 100 mM Tris-HCl buffer solution (pH 7.4) containing 5 mM EDTA, 50 mM sodium pyrophosphate, 50 mM NaF, 100 mM orthovanadate, 1% Triton X-100, 1 mM phenylmethanesulfonyl fluoride (PMSF), […] of aprotinin, 1 μg/mL of pepstatin A, and 1 μg/mL of leupeptin was used. After lysing the cells, the lysates were obtained, and then centrifuged at 1,300×g and 4° C. for 20 minutes, and then the middle layer was taken as a protein layer in the cell extract. For the protein layer, the concentrations of proteins were quantified by the Bradford method. 40 μg of the quantified proteins were electrophoresed by SDS-PAGE, and then the separated proteins were transferred to nitrocellulose membranes (Amersham, Buckinghamshire, UK). Then, the membranes were washed three times for 10 minutes using a Tris-buffered saline and Tween 20 solution (TBS-T), followed by blocking using 10% skim milk for 60 minutes. […] Bands visualized on the X-ray film were scanned and quantified using Quantity One analysis software (Bio-Rad).

p-4E-BP1 protein = test: as above; format: cell-based, mouse; conditions: ethyl vanillin with dexamethasone vs dexamethasone control
Description: as §3

In the case of `CCOc1cc(C=O)ccc1O` [ethyl vanillin, 3-ethoxy-4-hydroxybenzaldehyde], the “expression of MuRF1 (mRNA)” value (MuRF1) is reported as “significantly reducing; also recorded: significantly reduces”, the “expression of Myostatin (mRNA)” value (Myostatin) is reported as “significantly reducing” and the “expression of MaFbx/atrogin 1 (mRNA)” value (MaFbx/atrogin 1) is reported as “significantly reducing; also recorded: significantly reduces”. For the same compound, the “increase in fiber diameter of the tibialis anterior vs high-fat diet” value [1] was 57%, the “increase in thickness of myotubes compared to reduction caused by dexamethasone” value ([2]; 100 μM ethyl vanillin along with 50 μM dexamethasone, 48 hours, C2C12 myotubes) was 49% and the “number of myotubes of mouse myoblasts reduced by dexamethasone” value ([2]; treated with ethyl vanillin, vs dexamethasone) was “significantly increased”. For the same compound, the solubility in chloroform ([3]; chloroform) was “soluble”, the solubility in ethanol ([3]; ethanol) was “soluble” and the solubility in water ([3]; water) was “insoluble”. For the same compound, the “increase in grip strength (force/body weight) vs high-fat diet” value [4] was 27%, the “increase in holding impulse (hanging time x body weight) vs high-fat diet” value [5] was 147% and the “amount of p-p70S6K1 protein” value (p-p70S6K1 protein) was “significantly increases”. For the same compound, the “amount of p-4E-BP1 protein” value (p-4E-BP1 protein) was “significantly increases”.
